These results are taken from paper PMC6136712, “Ex vivo drug sensitivity testing as a means for drug repurposing in esophageal adenocarcinoma” (PLoS ONE, 2018).

Structures are written as SMILES. pEC50: −log10 of the molar value. Structures can show the parent of a compound that is named as a salt. Where two headings read alike, the source gives them in different places.

The test system of this experiment is normal esophageal epithelium cell line EACN42. As to the kind of experiment: FDA library drug sensitivity testing (CellTiter-Glo, 72 h), normal control cells. Also on record: key to DSS: modified drug sensitivity score (DSSmod) from dose-response curve fit. The format is cell-based, human. The following applies: for pEC50: cell viability (ATP), max test concentration 10μM. How it is done: The normal esophageal epithelium cell line EACN42 was established in the Capobianco laboratory. The cell lines was derived from human normal epithelium and immortalized using HPV E6-E7.
Drug sensitivity testing (DST) was performed as described previously. […] Individual drugs were dissolved in 100% DMSO and tested in duplicates starting at a maximal test concentration of 10μM then over a 20,000-fold concentration range to generate dose response curves. Wells with assay buffer containing DMSO served as negative controls. 1000 exponentially growing cells were seeded per well in 384-well micro-titer plates and incubated in the presence of compounds in a humidified environment at 37°C and 5% CO2. After 72 hours of treatment, cell viability was assessed by measuring ATP levels via bioluminescence (CellTiter-Glo, Promega) according to manufactures recommendations. Interpretation of curve parameters was performed according to the modified drug sensitivity scoring (DSSmod) function developed by Swords et al. […] Given in this way, the sDSSmod incorporated information on each drug’s potency, efficacy, effect range and therapeutic index, making it possible to prioritize compounds over multiple parameters using a single numerical metric. […] All calculations and scoring routines are implemented in MatLab and additional curve fitting and statistical analyses are performed in GraphPad prism.
(Cellular ATP, detected with luciferase, serves as a proxy for viable cell number.)

Where [1] appears, read: drug sensitivity score, EACN42 normal esophageal cells, 72 h.
[2] abbreviates: Homo sapiens, 72 h, EACN42 normal esophageal cells.
Setting [3] is: EACN42 normal esophageal cells, 72 h.

The compound `CNNCc1ccc(C(=O)NC(C)C)cc1` [Procarbazine HCl] had a DSS under setting [1] of 0. On to `C[C@]12CC[C@@H]3c4ccc(O)cc4C[C@@H](CCCCCCCCC[S+]([O-])CCCC(F)(F)C(F)(F)F)[C@H]3[C@@H]1CC[C@@H]2O` (stereo partly drawn) [Fulvestrant], for which the DSS under setting [1] was found to be 0. For the compound `Cc1nc(-c2ccc(OCC(C)C)c(C#N)c2)sc1C(=O)O` [Febuxostat], under setting [2], the negative logarithm of the EC50 (pEC50) – broadly, −log10 of the EC50, conventionally taken in molar units – was < 5.00. The same compound displayed a DSS under setting [1] of 0. Take `C[C@@H]1C[C@H]2[C@@H]3CCC4=CC(=O)C=C[C@]4(C)[C@@]3(F)[C@@H](O)C[C@]2(C)[C@@]1(O)C(=O)CO` [Dexamethasone]: the DSS under setting [1] was found to be 0.

`C[C@]12C=CC(=O)C=C1CC[C@@H]1[C@@H]2C(=O)C[C@@]2(C)[C@H]1CC[C@]2(O)C(=O)CO` [Prednisone]: the DSS under setting [1] amounted to 0.

Regarding `Cn1nnc2c(C(N)=O)ncn2c1=O` [Methazolastone], the DSS under setting [1] is given as 0. Compound `CC#CCn1c(N2CCC[C@@H](N)C2)nc2c1c(=O)n(Cc1nc(C)c3ccccc3n1)c(=O)n2C` [Linagliptin] had a negative-log EC50 (pEC50) under setting [2] of 6.42. Further, the DSS under setting [1] is 0. Regarding `CC1=C(/C=C/C(C)=C/C=C/C(C)=C\C(=O)O)C(C)(C)CCC1` [Isotretinoin], the DSS under setting [1] is 0. Under setting [3], `Cl.Nc1ncnc2nc[nH]c12` [Adenine hydrochloride] showed a pEC50 of 8.00. The same compound registered a DSS under setting [1] of 0. `CCCCCOC(=O)Nc1nc(=O)n([C@@H]2O[C@H](C)[C@@H](O)[C@H]2O)cc1F` [Capecitabine]: the pEC50 under setting [2] was 6.00. Besides, the DSS under setting [1] amounted to 0. The like results for `C=C1c2cccc(O)c2C(=O)C2=C(O)[C@]3(O)C(=O)C(C(N)=O)=C(O)[C@@H](N(C)C)[C@@H]3[C@@H](O)[C@H]12` [Methacycline hydrochloride] were, in that order, < 5.00 and 0. With `CS(=O)(=O)c1ccc(C(=O)Nc2ccc(Cl)c(-c3ccccn3)c2)c(Cl)c1` [Vismodegib], under setting [1], the DSS amounted to 0.

`C=CC[C@@H]1/C=C(\C)C[C@H](C)C[C@H](OC)[C@H]2O[C@@](O)(C(=O)C(=O)N3CCCC[C@H]3C(=O)O[C@H](/C(C)=C/[C@@H]3CC[C@@H](O)[C@H](OC)C3)[C@H](C)[C@@H](O)CC1=O)[C@H](C)C[C@@H]2OC` [Tacrolimus]: the DSS under setting [1] amounted to 0. As to `CC(=O)Oc1ccccc1C(=O)O` [Aspirin], the “treatment response in words” value under setting [3] is “low or no activity”. Also, the DSS under setting [1] was 0. Compound `COc1cc2ncnc(Nc3ccc(F)c(Cl)c3)c2cc1OCCCN1CCOCC1` [Gefitinib] had a DSS under setting [1] of 0. Compound `CCN[C@H]1C[C@H](C)S(=O)(=O)c2sc(S(N)(=O)=O)cc21` [Dorzolamide HCL] yielded a DSS under setting [1] of 0.01. With `CC1=NN(c2ccc(C)c(C)c2)C(=O)/C1=N\Nc1cccc(-c2cccc(C(=O)O)c2)c1O` [Eltrombopag], the pEC50 under setting [2] was 5.33. This compound also had a DSS under setting [1] of 0.32.

In turn, `CC(c1cc2ccccc2s1)N(O)C(N)=O` (stereo not drawn) [Zileuton] gave a DSS under setting [1] of 0. In turn, `C=C(c1ccc(C(=O)O)cc1)c1cc2c(cc1C)C(C)(C)CCC2(C)C` [Bexarotene] gave a pEC50 under setting [2] of 5.37. This compound came in with a DSS under setting [1] of 0.12. The compound `CC/C(=C(/CC)c1ccc(O)cc1)c1ccc(O)cc1` [Diethylstilbestrol] returned a DSS under setting [1] of 0. `CC(=O)O[C@H]1CC[C@@]2(C)C(=CC[C@@H]3[C@@H]2CC[C@]2(C)C(c4cccnc4)=CC[C@@H]32)C1` [Abiraterone Acetate]: the DSS under setting [1] was 0. `CCCS(=O)(=O)Nc1ccc(F)c(C(=O)c2c[nH]c3ncc(-c4ccc(Cl)cc4)cc23)c1F` [Vemurafenib] had a pEC50 under setting [2] of 7.30. Further, the DSS under setting [1] stood at 0.

On to `O=C(O)c1nn(Cc2ccc(Cl)cc2Cl)c2ccccc12` [Lonidamine], for which the DSS under setting [1] is recorded as 0. On to `CN(C)C/C=C/C(=O)Nc1cc2c(Nc3ccc(F)c(Cl)c3)ncnc2cc1O[C@H]1CCOC1` [Afatinib], for which the pEC50 under setting [2] is 5.34. Further, the DSS under setting [1] is given as 0.12. The like results for `CNC(=O)c1cc(Oc2ccc(NC(=O)Nc3ccc(Cl)c(C(F)(F)F)c3)cc2)ccn1` [Sorafenib] were, in that order, 5.02 and 1.79. Compound `NCCC(O)(P(=O)([O-])O)P(=O)([O-])O.[Na+].[Na+]` [Pamidronate Disodium] returned a DSS under setting [1] of 0. `C[C@]12CC[C@@H]3c4ccc(O)cc4CC[C@H]3[C@@H]1CCC2=O` [Estrone] came in with a DSS under setting [1] of 0.

As for `CC1(C)O[C@@H]2C[C@H]3[C@@H]4CCC5=CC(=O)C=C[C@]5(C)[C@@]4(F)[C@@H](O)C[C@]3(C)[C@]2(C(=O)CO)O1` [Triamcinolone Acetonide], the DSS under setting [1] is listed as 0. Consider `COC(=O)C1=C(C#N)NC(C)=C(C(=O)OC(C)C)C1c1cccc([N+](=O)[O-])c1` (stereo not drawn) [Nilvadipine], for which the pEC50 under setting [2] is 8.00. Moreover, the DSS under setting [1] worked out at 0. Under setting [1], `COc1cc(Nc2c(C#N)cnc3cc(OCCCN4CCN(C)CC4)c(OC)cc23)c(Cl)cc1Cl` [Bosutinib] registered a DSS of 0. The same measure, in the same setting: next, `C=CCN1CC[C@]23c4c5ccc(O)c4O[C@H]2C(=O)CC[C@@]3(O)[C@H]1C5` [Naloxone HCl]: 0; `CN1C2=CC(=O)/C(=N\NC(N)=O)C=C2CC1S(=O)(=O)[O-].[Na+]` (stereo not drawn) [Carbazochrome sodium sulfonate]: 0; `CC1=C(/C=C/C(C)=C/C=C/C(C)=C/C(=O)O)C(C)(C)CCC1` [Tretinoin]: 0. Same read-out and setting: next, `CC(O)(CS(=O)(=O)c1ccc(F)cc1)C(=O)Nc1ccc(C#N)c(C(F)(F)F)c1` (stereo not drawn) [Bicalutamide]: 0.

Turning to `N.N.O=C([O-])C1(C(=O)[O-])CCC1.[Pt+2]` [Carboplatin], under setting [3], the “treatment response in words” value was “minimal treatment effects” and the negative logarithm of the EC50 (pEC50) was 5.63. Under setting [1], this compound had a DSS of 3.68.

On to `CCC(C)n1ncn(-c2ccc(N3CCN(c4ccc(OCC5COC(Cn6cncn6)(c6ccc(Cl)cc6Cl)O5)cc4)CC3)cc2)c1=O` (stereo not drawn) [Itraconazole], for which the DSS under setting [1] is 0.

As to `Cc1ccc(Nc2nccc(N(C)c3ccc4c(C)n(C)nc4c3)n2)cc1S(N)(=O)=O` [Pazopanib], the DSS under setting [1] was determined as 0.

`COc1ccc2[n-]c([S@@+]([O-])Cc3ncc(C)c(OC)c3C)nc2c1.[Na+]` [Esomeprazole sodium]: under setting [1], the DSS is given as 0. On the same count and under the same terms, next, `C[C@H]1C[C@H]2[C@@H]3CCC4=CC(=O)C=C[C@]4(C)[C@H]3C(=O)C[C@]2(C)[C@@]1(O)C(=O)CO` [Betapar]: 0. Turning to `COc1cc2c(cc1O)CC[C@@H]1[C@@H]2CC[C@]2(C)[C@@H](O)CC[C@@H]12` [2-Methoxyestradiol], the negative logarithm of the EC50 (pEC50) under setting [2] was < 5.00. Besides, the DSS under setting [1] came out at 0.26. `Nc1nnc(-c2cccc(Cl)c2Cl)c(N)n1` [Lamotrigine] came in with a DSS under setting [1] of 0.

Regarding `Cl.N=C(N)NCCC[C@H](N)C(=O)O` [L-Arginine HCl], under setting [3], the negative-log EC50 (pEC50) is 8.00. This compound returned a DSS under setting [1] of 0. In the case of `O=c1[nH]c(=O)n(C2CCCO2)cc1F` (stereo not drawn) [Ftorafur], the DSS under setting [1] is 0.

The compound `CCN(CC)CCOc1ccc(C(=C(Cl)c2ccccc2)c2ccccc2)cc1` [Clomifene citrate] returned a DSS under setting [1] of 0. Under setting [1], `C[C@]12CCC(=O)C=C1CC[C@@H]1[C@@H]2[C@@H](O)C[C@@]2(C)[C@H]1CC[C@]2(O)C(=O)CO` [Hydrocortisone] came in with a DSS of 0. The compound `O=C(c1ccc(OCCN2CCCCC2)cc1)c1c(-c2ccc(O)cc2)sc2cc(O)ccc12` [Evista] displayed a DSS under setting [1] of 0.

`Nc1ncn([C@H]2C[C@H](O)[C@@H](CO)O2)c(=O)n1` [Decitabine] had a pEC50 (Homo sapiens, EACN42 normal esophageal cells, 72 h) of 6.77. Besides, the DSS under setting [1] came to 0. With `CCN(CC)CCNC(=O)c1c(C)[nH]c(/C=C2\C(=O)Nc3ccc(F)cc32)c1C` [Sunitinib Malate], the pEC50 under setting [2] was 8.00. The compound also came in with a DSS under setting [1] of 0.

For the compound `C[C@@H]1CCN(C(=O)CC#N)C[C@@H]1N(C)c1ncnc2[nH]ccc12` [Tofacitinib citrate], the DSS under setting [1] was 0.

Compound `O=C1CN2Cc3c(ccc(Cl)c3Cl)N=C2N1` [Anagrelide HCl] gave a pEC50 under setting [2] of 7.40. Also, the DSS under setting [1] worked out at 0. `O=P1(N(CCCl)CCCl)NCCCO1` (stereo not drawn) [Cyclophosphamide monohydrate] displayed a DSS of 0. Turning to `CC(C)(C#N)c1cc(Cn2cncn2)cc(C(C)(C)C#N)c1` [Anastrozole], under setting [2], the pEC50 is 5.80. The compound also showed a DSS under setting [1] of 0. Consider `CO[C@H]1O[C@@H]2O[C@@]3(C)CC[C@H]4[C@H](C)CC[C@@H]([C@H]1C)[C@@]24OO3` [Artemether], for which the DSS under setting [1] is recorded as 0. Same read-out and setting: next, `N=C(N)/N=C(\N)N1CCOCC1` [Moroxydine]: 0. `CS(=O)(=O)CCNCc1ccc(-c2ccc3ncnc(Nc4ccc(OCc5cccc(F)c5)c(Cl)c4)c3c2)o1` [Lapatinib] showed a negative-log EC50 (pEC50) under setting [2] of 7.40. Further, the DSS under setting [1] is recorded as 0. Consider `COC(=O)N[C@H](C(=O)N[C@@H](Cc1ccccc1)[C@@H](O)CN(Cc1ccc(-c2ccccn2)cc1)NC(=O)[C@@H](NC(=O)OC)C(C)(C)C)C(C)(C)C.O=S(=O)(O)O` [Atazanavir sulfate], for which the DSS under setting [1] came out at 0. Still for that read-out and setting: the result for `CCCC(=O)[O-].[Na+]` [Sodium butyrate] reads 0.
